SMILES strings stand for the structures.

Assay [1] relates to cathepsin B. In words: Cathepsin B translocation to cytosol (subcellular fractionation, Western blot, activity assay). Format: cell-based, human. The settings on record: DU145 cells. As for the experimental part:
Subcellular fractionation. For cytochrome c immunoblot, cells were seeded and treated as described above. Cells were harvested at 4, 12, or 24 hours after treatment as described previously (62) and proteins (15 μg) were separated by gel electrophoresis and immunoblotted for cytochrome c as above. The protocol for separating cytosolic and heavy membrane fractions is a modified version of that used by Desahger et al. (63). Briefly, cells were seeded and treated in 60 mm plates as described above. Cells were harvested at 0, 0.5, 1, and 2 hours after treatment, washed once in PBS, and gently resuspended in isotonic mitochondrial buffer (210 mM mannitol, 70 mM sucrose, 1 mM EDTA, 10 mM HEPES, pH 7.0) supplemented with protease inhibitors. Cells were then transferred to 1.5 mL microcentrifuge tubes and homogenized using 40 strokes with a polished (fine grain sandpaper) Teflon pestle. Fractions were separated using differential centrifugation as described in the reference. All fractions were stored at −80° C. Cytosolic and heavy membrane fractions (30 and 15 μg, respectively) were separated on NuPAGE gels and immunoblotted as described above. […] Enzyme activity per 50 μg lysate was measured using the fluorogenic cathepsin B substrate 111 (Calbiochem) according to the manufacturer's protocol.
(In general: A western blot detects proteins with antibodies after separation by electrophoresis.)

In assay [2] the test system is total ceramide levels in DU145 cells. In words: Ceramide measurement by mass spectrometry. Format: cell-based, human. As to conditions: 10 μM. As for the experimental part: Ceramide measurement. 2.1×10^6 cells were seeded in 100 mm plates overnight. The next day, media was removed and replaced with media containing vehicle control or LCL204 (10 μM) for indicated time points. Following treatment, cells were harvested by gentle scraping and immediate centrifugation at 4° C. for 5 minutes at 400×g. Cell pellets were then resuspended in ice cold PBS and stored at −80° C. For sphingolipid analysis, cell pellets were examined using mass spectometry as previously described (61).

Assay [3] deals with Bax. Nature of the assay: Immunoblot of Bax. Format: cell-based, human. The settings on record: PC-3 cells, 10 μM. As to the method:
(§1) Immunoblot analysis. Cells were seeded in 60mm plates as described above and treated accordingly. Cells were lifted by gently scraping the plates, washed once with ice cold PBS and then lysed in lysis buffer (PBS, 1% Triton X-100, 10% glycerol) containing protease inhibitors pepstatin A (0.5 μg/ml), leupeptin (0.5 μg/ml), aprotinin (5 μg/ml), and PMSF (100 μg/ml) for 10 minutes on ice. Insoluble material was removed by centrifugation at 14,000 rpm for 15 minutes at 4° C. The supernatants were then supplemented with SDS at a final concentration of 2% and stored at −80° C. Protein concentrations were determined using the DC Protein Assay (BioRad Laboratories; Hercules, CA, USA) according to the manufacturer's instructions. 50 μg of protein per sample (unless otherwise indicated) were separated on NuPAGE 4-12% Bis-Tris gels (Invitrogen; Carlsbad, CA, USA) and transferred to nitrocellulose membranes (BioRad). Following transfer, membranes were blocked for 1 hour at room temperature in Tris-buffered saline (TBS) containing 0.1% Tween-20 and 5% nonfat dry milk and incubated overnight at 4° C. with primary antibody at a dilution of 1:2,000(actin), 1:1,000(cytochrome c, COX IV, Bax, Bak, p53, p38, P-p38), 1:500(P-JNK, JNK), 1:250 (AC, p73), or 1:400(LAMP-1, cathepsin B). Overnight incubations were performed in 5% milk in TBS-Tween. […]

Assay [4] deals with JNK. Nature of the assay: Immunoblot of phosphorylated JNK. Format: cell-based, human. As to conditions: DU145 and PC-3 cells. As to the method: as §1
For assay [5], the target named is T1, acid ceramidase (AC) (Homo sapiens, UniProt Q13510).
T1 construct: endogenous in cells
T1 sequence (Q13510 22-395): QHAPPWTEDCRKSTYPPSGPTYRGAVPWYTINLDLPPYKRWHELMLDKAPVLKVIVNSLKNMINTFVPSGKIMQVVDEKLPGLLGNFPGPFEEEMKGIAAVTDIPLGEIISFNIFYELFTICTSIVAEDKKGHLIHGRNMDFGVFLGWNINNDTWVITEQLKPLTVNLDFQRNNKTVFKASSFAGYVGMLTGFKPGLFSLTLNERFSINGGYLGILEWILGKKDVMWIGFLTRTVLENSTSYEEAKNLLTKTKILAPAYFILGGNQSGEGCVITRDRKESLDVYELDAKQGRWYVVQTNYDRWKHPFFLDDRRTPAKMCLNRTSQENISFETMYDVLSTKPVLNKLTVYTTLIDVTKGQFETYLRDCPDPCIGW
In words: Immunoblot of acid ceramidase protein. As to conditions: DU145 cells. Format: cell-based. As to the method:
(§2) Immunoblot analysis. Cells were seeded in 60mm plates as described above and treated accordingly. Cells were lifted by gently scraping the plates, washed once with ice cold PBS and then lysed in lysis buffer (PBS, 1% Triton X-100, 10% glycerol) containing protease inhibitors pepstatin A (0.5 μg/ml), leupeptin (0.5 μg/ml), aprotinin (5 μg/ml), and PMSF (100 μg/ml) for 10 minutes on ice. Insoluble material was removed by centrifugation at 14,000 rpm for 15 minutes at 4° C. The supernatants were then supplemented with SDS at a final concentration of 2% and stored at −80° C. Protein concentrations were determined using the DC Protein Assay (BioRad Laboratories; Hercules, CA, USA) according to the manufacturer's instructions. 50 μg of protein per sample (unless otherwise indicated) were separated on NuPAGE 4-12% Bis-Tris gels (Invitrogen; Carlsbad, CA, USA) and transferred to nitrocellulose membranes (BioRad). Following transfer, membranes were blocked for 1 hour at room temperature in Tris-buffered saline (TBS) containing 0.1% Tween-20 and 5% nonfat dry milk and incubated overnight at 4° C. with primary antibody at a dilution of 1:2,000(actin), 1:1,000(cytochrome c, COX IV, Bax, Bak, p53, p38, P-p38), 1:500(P-JNK, JNK), 1:250 (AC, p73), or 1:400(LAMP-1, cathepsin B). Overnight incubations were performed in 5% milk in TBS-Tween. Following overnight incubation, membranes were washed three times for 10 minutes each in TBS-Tween and incubated for 1 hour at room temperature with secondary antibody in 5% milk TBS-Tween at a dilution 1:5,000 (goat anti-mouse IgG) or 1:50,000 (goat anti-rabbit). Membranes were then washed three times more and incubated for 5 minutes at room temperature with Super Signal HRP substrate (Pierce Biotechnology Inc.; Rockford, IL, USA).

Assay [6] relates to p53. Nature of the assay: Immunoblot of p53. Format: cell-based, human. The settings on record: DU145 cells, 10 μM. As to the method:
as §1

For assay [7], the system named is cFLIPS, Survivin, cIAP-1, RIP, Caspase 8. In words: Anti-apoptotic proteins and caspase 8 after LCL204. The settings on record: DU145 cells.
Assay [8] concerns PUMA. Nature of the assay: Immunoblot of PUMA. Format: cell-based, human. As to conditions: for PUMA up-regulation: 10 μM. As for the experimental part:
as §2

In assay [9] the test system is LAMP-1. In words: Immunoblot of LAMP-1. Format: cell-based, human. The settings on record: DU145 cells, 12 hours LCL204. As for the experimental part: as §1
Assay [10] concerns DU145 cells. In words: Cell death by MTS assay, ceramide analog combined with AdGFPFasL virus. Format: cell-based, human. As for the experimental part: LCL102, a ceramidase inhibitor, which acts to increasing intracellular ceramide levels by […], were tested in this system. This molecule was highly efficient at activating cell death in DU145 cells at nontoxic doses if combined with AdGFPFasL virus at MOIs achievable in vivo. DU145 cells growing in 96 well plates at 1×10^4 cells/well are treated with either media alone or LCL102 at 2 uM for 48 hours followed by AdGFPFasL for 24 hours at the MOI (5-80). Cell death is assayed by the MTS assay. At 2 uM LCL102 and 5MOI of virus, cell death is amplified 4-fold compared to LCL102 alone (FIG. 14).
(Tetrazolium dyes change colour on reduction, which living cells bring about.)

As for `CCCCCCCCCCCCCCN[C@H](CO)[C@H](O)c1ccc([N+](=O)[O-])cc1.Cl` [LCL204, (1R,2R) D-threo-2-N-Tetradecylamino-1-(4′-nitrophenyl)-1,3-propandiol hydrochloride], in assay [1] (10 μM, enzyme activity assay), the “time within which cytosolic cathepsin B activity increased” value is not above 30 min. In addition, the “time within which active cathepsin B was detected in the cytosolic fraction” value in [1] (Western blot) was not above 30 min. For the same compound, in assay [2], the total ceramide levels result is recorded as “rise in total ceramide levels within one hour”. Also, in [3], the Bax protein levels entry is “unaffected”. The “phosphorylation and activation of JNK” value in assay [4] is reported as “beginning as early as three hours”. In addition, the “earliest down-regulation of AC” value in [5] (5 μM) was 2 h. The AC expression levels entry in assay [5] is “dose and time-dependent decrease in AC expression levels”. In [6], the p53 induction entry is “induced p53 in DU145 cells after four hours”. Moreover, in assay [7], the “Caspase 8” value was “unaffected”; the anti-apoptotic proteins entry is “down-regulation of anti-apoptotic proteins cFLIPS, Survivin, cIAP-1, and RIP”. The PUMA up-regulation result in assay [8] (DU145 cells) is “up-regulated in DU145 cells after eight hours”. In addition, the PUMA up-regulation entry in assay [8] (PC-3 cells) is “earlier (four hours) in PC-3 cells”. In assay [8] (PPC-1/pcDNA3 control cells, 7.5 μM), the “time of PUMA induction” value came out at 90 min. Besides, in assay [9], the LAMP-1 expression entry is “increases”. Also, in assay [10] (2 μM in combination with AdGFPFasL virus at low MOIs), the “increase in cancer cell death” value is given as not above 10 fold. Also, the viral infectivity entry in assay [10] (DU145 cells) is reported as “not modifying viral infectivity”. Moreover, the “increase of the ability of AdGFPFasL to kill tumor cells” value in assay [10] (in vitro, subtoxic doses) is given as “as much as ten-fold”.
